Experimental data taken from ChEMBL document CHEMBL5579895, “Discovery of TYRA-300: First Oral Selective FGFR3 Inhibitor for the Treatment of Urothelial Cancers and Achondroplasia” (J Med Chem, 2024).
In brackets after ≈: the same amount, converted by molar mass.

Legend:
[1] = molecular target: T1, Vascular endothelial growth factor receptor 2 (Homo sapiens, UniProt P35968); assay: Inhibition of human VEGFR2 at 100 nM by KINOMEscan analysis relative to control
[2] = molecular target: T2, Fibroblast growth factor receptor 3 (Homo sapiens, UniProt P22607); assay: Inhibition of wild-type FGFR3 (unknown origin) by mobility shift assay
DMS-114 = assay: Inhibition of cell viability in human DMS-114 cells harboring FGFR1-amplification incubated for 72 to 120 hrs by Cell Titer Glo assay; assay type: functional, cell-based
[3] = molecular target: T1, Vascular endothelial growth factor receptor 2; assay: Inhibition of human VEGFR2 by KINOMEscan analysis
RT112/84 [4] = assay: cells; assay type: functional, cell-based; conditions: Homo sapiens
Description: Inhibition of cell viability in human RT112/84 cells harboring FGFR3 V555M mutant incubated for 72 to 120 hrs by Cell Titer Glo assay

[5] = Cmax in Sprague-Dawley rat at 10 mg/kg, po measured for 24 hrs by LC-MS/MS analysis; assay type: ADME, organism-based; conditions: in vivo
[6] = Clearance in monkey at 1 mg/kg, iv measured for 24 hrs by LC-MS/MS analysis; assay type: ADME, organism-based, Macaca mulatta; conditions: rhesus monkey, in vivo
[7] = Inhibition of cell viability in human UMUC14 cells harboring FGFR3 S249C mutant incubated for 72 to 120 hrs by Cell Titer Glo assay; assay type: functional, cell-based
RT112/84 [8] = assay: cells; assay type: functional, cell-based; conditions: Homo sapiens; remark: listed apart in the source
Description: Inhibition of cell viability in human RT112/84 cells harboring FGFR3/TACC3 fusion incubated for 72 to 120 hrs by Cell Titer Glo assay

[9] = Stability in dog hepatocytes assessed as half life at 1 uM incubated upto 180 mins by LC-MS/MS analysis; assay type: ADME, cell-based, Canis lupus familiaris, Hepatocyte
[10] = AUC (last) in Sprague-Dawley rat at 2 mg/kg, iv measured for 24 hrs by LC-MS/MS analysis; assay type: ADME, organism-based; conditions: in vivo
[11] = Thermodynamic solubility in FaSSGF; assay type: ADME; conditions: read-out: Therm_solubility
[12] = molecular target: Fibroblast growth factor receptor 1 (Homo sapiens, UniProt P11362); assay: Inhibition of human FGFR1 by KINOMEscan analysis
[13] = Stability in human hepatocytes assessed as intrinsic clearance at 1 uM incubated upto 180 mins by LC-MS/MS analysis; assay type: ADME, cell-based, Hepatocyte; conditions: read-out: CLH
[14] = AUC (last) in monkey at 1 mg/kg, iv measured for 24 hrs by LC-MS/MS analysis; assay type: ADME, organism-based, Macaca mulatta; conditions: rhesus monkey, in vivo
[15] = molecular target: Fibroblast growth factor receptor 3 (Homo sapiens, UniProt P22607, N540K); assay: Inhibition of FGFR3 N540K mutant (unknown origin) by NanoBRET assay
[16] = molecular target: Fibroblast growth factor receptor 3 (Homo sapiens, UniProt P22607, K650E); assay: Inhibition of FGFR3 K650E mutant (unknown origin) by mobility shift assay
[17] = Stability in rat hepatocytes assessed as half life at 1 uM incubated upto 180 mins by LC-MS/MS analysis; assay type: ADME, cell-based, Hepatocyte
[18] = molecular target: Voltage-gated inwardly rectifying potassium channel KCNH2 (Homo sapiens, UniProt Q12809); assay: Inhibition of hERG expressed in CHO cells by automated patch-clamp assay; assay type: toxicity, cell-based
[19] = Oral bioavailability in monkey at 10 mg/kg measured for 24 hrs by LC-MS/MS analysis; assay type: ADME, organism-based, Macaca mulatta; conditions: rhesus monkey, in vivo
[20] = Clearance in dog at 1 mg/kg, iv measured for 24 hrs by LC-MS/MS analysis; assay type: ADME, organism-based, Canis lupus familiaris; conditions: in vivo
[21] = AUC (last) in Sprague-Dawley rat at 10 mg/kg, po measured for 24 hrs by LC-MS/MS analysis; assay type: ADME, organism-based; conditions: in vivo
RT112/84 [22] = assay: animal or person; assay type: functional, Homo sapiens; conditions: Mus musculus, RT112/84, 504 h, route po, time 21 day, read-out: TGI
Description: Antitumor activity against human RT112/84 cells harboring FGFR3 V555M mutant xenografted in Balb/c nude mouse model at 12.5 mg/kg, po bid treated for 21 days relative to control

[23] = AUC (last) in dog at 1 mg/kg, iv measured for 24 hrs by LC-MS/MS analysis; assay type: ADME, organism-based, Canis lupus familiaris; conditions: in vivo
[24] = Tmax in monkey at 10 mg/kg, po measured for 24 hrs by LC-MS/MS analysis; assay type: ADME, organism-based, Macaca mulatta; conditions: rhesus monkey, in vivo
[25] = molecular target: Fibroblast growth factor receptor 2 (Homo sapiens, UniProt P21802); assay: Inhibition of human FGFR2 by KINOMEscan analysis
[26] = Volume of distribution in dog at 1 mg/kg, iv measured for 24 hrs by LC-MS/MS analysis; assay type: ADME, organism-based, Canis lupus familiaris; conditions: in vivo
RT-4 = assay: Inhibition of cell viability in human RT-4 cells harboring FGFR3/TACC3 fusion incubated for 72 to 120 hrs by Cell Titer Glo assay; assay type: functional, cell-based
[27] = Half life in dog at 10 mg/kg, po measured for 24 hrs by LC-MS/MS analysis; assay type: ADME, organism-based, Canis lupus familiaris; conditions: in vivo
[28] = Half life in monkey at 1 mg/kg, iv measured for 24 hrs by LC-MS/MS analysis; assay type: ADME, organism-based, Macaca mulatta; conditions: rhesus monkey, in vivo
[29] = Stability in human hepatocytes assessed as half life at 1 uM incubated upto 180 mins by LC-MS/MS analysis; assay type: ADME, cell-based, Hepatocyte
[30] = Tmax in Sprague-Dawley rat at 10 mg/kg, po measured for 24 hrs by LC-MS/MS analysis; assay type: ADME, organism-based; conditions: in vivo
[31] = molecular target: Fibroblast growth factor receptor 3 (Homo sapiens, UniProt P22607, G380R); assay: Inhibition of FGFR3 G380R mutant (unknown origin) by NanoBRET assay
[32] = Apparent permeability in human Caco-2 cells; assay type: ADME, cell-based
[33] = Apparent permeability in MDCK-MDR1 cells; assay type: ADME, cell-based, Canis lupus familiaris; conditions: dog
[34] = molecular target: Tyrosine-protein kinase JAK2 (Homo sapiens, UniProt O60674); assay: Inhibition of human JAK2 by KINOMEscan analysis
[35] = Thermodynamic solubility in FaSSIF; assay type: ADME; conditions: read-out: Therm_solubility
[36] = Stability in mouse hepatocytes assessed as half life at 1 uM incubated upto 180 mins by LC-MS/MS analysis; assay type: ADME, cell-based, Hepatocyte
[37] = Volume of distribution in monkey at 1 mg/kg, iv measured for 24 hrs by LC-MS/MS analysis; assay type: ADME, organism-based, Macaca mulatta; conditions: rhesus monkey, in vivo
[38] = Oral bioavailability in dog at 10 mg/kg measured for 24 hrs by LC-MS/MS analysis; assay type: ADME, organism-based, Canis lupus familiaris; conditions: in vivo
[39] = molecular target: Fibroblast growth factor receptor 3 (Homo sapiens, UniProt P22607, K650M); assay: Inhibition of FGFR3 K650M mutant (unknown origin) by mobility shift assay
[40] = Clearance in Sprague-Dawley rat at 2 mg/kg, iv measured for 24 hrs by LC-MS/MS analysis; assay type: ADME, organism-based; conditions: in vivo
[41] = Cmax in dog at 10 mg/kg, po measured for 24 hrs by LC-MS/MS analysis; assay type: ADME, organism-based, Canis lupus familiaris; conditions: in vivo
[42] = Thermodynamic solubility in FeSSIF; assay type: ADME; conditions: read-out: Therm_solubility
KG-1 = assay: Inhibition of cell viability in human KG-1 cells harboring FGFR1-fusion incubated for 72 to 120 hrs by Cell Titer Glo assay; assay type: functional, cell-based
[43] = molecular target: Fibroblast growth factor receptor 3 (Homo sapiens, UniProt P22607, V555L); assay: Inhibition of FGFR3 V555L mutant (unknown origin) by mobility shift assay
[44] = Half life in Sprague-Dawley rat at 2 mg/kg, iv measured for 24 hrs by LC-MS/MS analysis; assay type: ADME, organism-based; conditions: in vivo
[45] = AUC (last) in dog at 10 mg/kg, po measured for 24 hrs by LC-MS/MS analysis; assay type: ADME, organism-based, Canis lupus familiaris; conditions: in vivo
[46] = molecular target: T2, Fibroblast growth factor receptor 3; assay: Inhibition of wild-type FGFR3 (unknown origin) by NanoBRET assay

T2 sequence (P22607 whole entry): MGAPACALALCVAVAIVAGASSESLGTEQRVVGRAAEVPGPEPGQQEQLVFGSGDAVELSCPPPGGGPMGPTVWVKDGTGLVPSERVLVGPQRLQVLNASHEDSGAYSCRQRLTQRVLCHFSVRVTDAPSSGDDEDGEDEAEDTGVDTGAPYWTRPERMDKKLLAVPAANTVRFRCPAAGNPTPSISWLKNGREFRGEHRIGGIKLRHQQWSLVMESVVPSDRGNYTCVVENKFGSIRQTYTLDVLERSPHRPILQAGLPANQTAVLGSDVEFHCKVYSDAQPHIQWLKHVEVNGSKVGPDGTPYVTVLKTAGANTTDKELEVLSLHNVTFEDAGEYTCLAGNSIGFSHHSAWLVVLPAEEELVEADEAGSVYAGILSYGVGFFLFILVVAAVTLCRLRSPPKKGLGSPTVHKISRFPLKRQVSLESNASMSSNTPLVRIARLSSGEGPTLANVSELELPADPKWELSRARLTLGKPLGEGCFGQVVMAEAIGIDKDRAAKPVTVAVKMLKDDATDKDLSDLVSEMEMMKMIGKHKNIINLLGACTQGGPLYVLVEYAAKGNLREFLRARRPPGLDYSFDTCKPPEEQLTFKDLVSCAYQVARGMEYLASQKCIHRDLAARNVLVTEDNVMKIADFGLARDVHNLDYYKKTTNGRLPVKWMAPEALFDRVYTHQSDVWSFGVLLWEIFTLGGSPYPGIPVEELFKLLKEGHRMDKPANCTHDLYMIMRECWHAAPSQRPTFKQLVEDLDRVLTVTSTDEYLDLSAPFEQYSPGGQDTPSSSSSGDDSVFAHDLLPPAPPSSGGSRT
T1 sequence (P35968 whole entry): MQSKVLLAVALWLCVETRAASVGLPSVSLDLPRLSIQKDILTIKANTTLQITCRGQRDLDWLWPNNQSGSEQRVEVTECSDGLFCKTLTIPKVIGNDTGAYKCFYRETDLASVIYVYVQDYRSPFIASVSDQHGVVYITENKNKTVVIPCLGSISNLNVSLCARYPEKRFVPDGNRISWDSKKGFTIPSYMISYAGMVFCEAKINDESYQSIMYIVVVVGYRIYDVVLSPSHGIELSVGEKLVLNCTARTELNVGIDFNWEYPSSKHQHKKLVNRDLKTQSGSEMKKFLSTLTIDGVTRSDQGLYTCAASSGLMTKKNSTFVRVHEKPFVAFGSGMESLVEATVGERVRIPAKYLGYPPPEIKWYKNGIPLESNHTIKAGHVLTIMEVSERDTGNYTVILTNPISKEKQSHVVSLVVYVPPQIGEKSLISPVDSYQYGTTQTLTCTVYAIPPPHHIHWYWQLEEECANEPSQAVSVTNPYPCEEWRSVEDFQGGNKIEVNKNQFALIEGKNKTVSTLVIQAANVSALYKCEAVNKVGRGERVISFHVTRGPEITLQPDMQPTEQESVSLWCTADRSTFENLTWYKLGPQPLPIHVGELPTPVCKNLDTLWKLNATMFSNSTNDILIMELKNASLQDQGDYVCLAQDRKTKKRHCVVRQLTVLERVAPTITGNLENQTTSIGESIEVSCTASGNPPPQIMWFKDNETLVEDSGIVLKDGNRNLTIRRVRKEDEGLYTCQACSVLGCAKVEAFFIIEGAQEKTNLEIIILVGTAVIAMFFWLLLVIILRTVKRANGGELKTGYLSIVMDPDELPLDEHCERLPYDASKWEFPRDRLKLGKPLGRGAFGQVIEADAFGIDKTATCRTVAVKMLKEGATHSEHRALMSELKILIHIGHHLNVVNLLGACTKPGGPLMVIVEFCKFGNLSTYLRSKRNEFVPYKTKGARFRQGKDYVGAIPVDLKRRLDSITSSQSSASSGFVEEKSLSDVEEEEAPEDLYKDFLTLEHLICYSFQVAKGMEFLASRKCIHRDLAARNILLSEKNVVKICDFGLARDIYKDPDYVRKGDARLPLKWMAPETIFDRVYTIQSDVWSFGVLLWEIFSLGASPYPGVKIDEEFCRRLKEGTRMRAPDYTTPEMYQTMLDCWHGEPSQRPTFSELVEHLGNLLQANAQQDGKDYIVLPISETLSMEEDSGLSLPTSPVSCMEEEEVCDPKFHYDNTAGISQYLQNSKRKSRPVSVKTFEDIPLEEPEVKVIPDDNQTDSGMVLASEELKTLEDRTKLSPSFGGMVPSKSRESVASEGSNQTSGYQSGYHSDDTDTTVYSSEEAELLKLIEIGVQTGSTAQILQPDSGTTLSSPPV
Fibroblast growth factor receptor 3 (Homo sapiens, UniProt P22607, K650M), sequence (P22607 23-806 K650M limits assumed): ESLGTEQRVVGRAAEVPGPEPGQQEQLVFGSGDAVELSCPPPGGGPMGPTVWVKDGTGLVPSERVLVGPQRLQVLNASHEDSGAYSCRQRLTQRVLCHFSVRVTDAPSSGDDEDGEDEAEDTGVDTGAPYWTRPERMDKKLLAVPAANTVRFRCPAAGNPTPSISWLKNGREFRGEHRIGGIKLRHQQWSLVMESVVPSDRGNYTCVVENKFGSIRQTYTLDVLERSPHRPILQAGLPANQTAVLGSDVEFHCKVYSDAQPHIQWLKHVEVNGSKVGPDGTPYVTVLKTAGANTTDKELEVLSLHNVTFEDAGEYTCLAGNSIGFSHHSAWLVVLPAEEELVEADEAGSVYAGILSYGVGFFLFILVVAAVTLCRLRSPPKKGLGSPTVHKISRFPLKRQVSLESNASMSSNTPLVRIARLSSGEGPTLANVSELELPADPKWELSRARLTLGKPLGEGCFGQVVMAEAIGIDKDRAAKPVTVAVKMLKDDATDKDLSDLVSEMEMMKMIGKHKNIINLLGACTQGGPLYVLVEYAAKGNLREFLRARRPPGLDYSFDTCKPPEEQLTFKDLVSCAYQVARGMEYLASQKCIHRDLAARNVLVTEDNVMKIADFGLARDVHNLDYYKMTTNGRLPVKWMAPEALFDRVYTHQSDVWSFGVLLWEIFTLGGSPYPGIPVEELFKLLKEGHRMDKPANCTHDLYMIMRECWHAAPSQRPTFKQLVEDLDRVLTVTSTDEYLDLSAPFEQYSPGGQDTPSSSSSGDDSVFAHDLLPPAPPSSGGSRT
Fibroblast growth factor receptor 3 (Homo sapiens, UniProt P22607, N540K), sequence (P22607 23-806 N540K limits assumed): as the sequence (P22607 23-806 K650M limits assumed) above, with N518K, M628K counted along it
Tyrosine-protein kinase JAK2, sequence (O60674 whole entry): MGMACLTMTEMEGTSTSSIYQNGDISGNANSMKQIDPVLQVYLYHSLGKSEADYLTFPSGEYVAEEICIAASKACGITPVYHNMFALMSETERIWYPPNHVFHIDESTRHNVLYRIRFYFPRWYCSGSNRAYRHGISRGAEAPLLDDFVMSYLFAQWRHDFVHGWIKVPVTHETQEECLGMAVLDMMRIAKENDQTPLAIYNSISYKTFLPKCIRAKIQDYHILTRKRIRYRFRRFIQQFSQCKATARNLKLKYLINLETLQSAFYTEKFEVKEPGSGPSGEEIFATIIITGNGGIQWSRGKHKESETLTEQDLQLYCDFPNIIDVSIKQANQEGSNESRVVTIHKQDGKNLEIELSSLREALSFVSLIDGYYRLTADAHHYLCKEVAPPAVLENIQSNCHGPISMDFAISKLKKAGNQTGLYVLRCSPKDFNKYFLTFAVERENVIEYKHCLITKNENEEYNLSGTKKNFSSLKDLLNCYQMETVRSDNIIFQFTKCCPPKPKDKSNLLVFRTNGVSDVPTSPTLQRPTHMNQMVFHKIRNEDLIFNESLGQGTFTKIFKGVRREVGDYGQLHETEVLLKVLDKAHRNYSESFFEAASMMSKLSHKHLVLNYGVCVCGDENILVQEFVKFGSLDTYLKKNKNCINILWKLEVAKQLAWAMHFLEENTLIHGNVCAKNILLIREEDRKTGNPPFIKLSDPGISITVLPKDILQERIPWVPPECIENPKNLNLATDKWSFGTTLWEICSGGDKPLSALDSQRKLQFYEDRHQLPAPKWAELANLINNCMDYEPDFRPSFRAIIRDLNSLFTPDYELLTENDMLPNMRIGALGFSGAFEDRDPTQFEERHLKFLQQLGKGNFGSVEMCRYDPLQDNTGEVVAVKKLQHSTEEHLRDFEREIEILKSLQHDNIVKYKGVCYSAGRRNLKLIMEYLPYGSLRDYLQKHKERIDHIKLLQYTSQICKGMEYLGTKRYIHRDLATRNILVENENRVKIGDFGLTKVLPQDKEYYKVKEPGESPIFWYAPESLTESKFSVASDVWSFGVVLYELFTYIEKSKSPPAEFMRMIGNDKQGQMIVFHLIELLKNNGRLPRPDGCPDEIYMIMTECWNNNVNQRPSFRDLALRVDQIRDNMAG

In the case of C[C@@H](Oc1ccc2[nH]nc(-c3ccc(N4CC5(C4)CN(S(C)(=O)=O)C5)nc3)c2c1)c1c(Cl)cncc1Cl, the inhibition [1] is reported as less than 90%, the IC50 [2] is reported as 1.6 nM and the IC50 (DMS-114) is reported as 205 nM. It also gave an IC50 [3] of 325 nM, an IC50 (RT112/84 [4]) of 17 nM and a Cmax [5] of 802 ng/mL. The clearance [6] was 11.1 mL/min/kg, the IC50 [7] was 16 nM and the IC50 (RT112/84 [8]) was 9 nM. For the same compound, the half-life at 1 µM [9] was greater than 1.67 h, the AUC(0-t) at 24 h [10] was 1730 ng·h/mL and the solubility thermodynamic [11] was 34 µM (≈ 19 µg/mL). It also gave an IC50 [12] of 108 nM, a CLint scaled at 1 µM [13] of 14 mL/min/kg and an AUC(0-t) at 24 h [14] of 1500 ng·h/mL. It also gave an IC50 [15] of 73 nM, an IC50 [16] of 2.8 nM and a half-life at 1 µM [17] of 1.23 h. It also gave an IC50 [18] of 9300 nM, a bioavailability [19] of 106% and a clearance [20] of 2.68 mL/min/kg. The AUC(0-t) at 24 h [21] was 3360 ng·h/mL, the inhibition in vivo at 12.5 mg/kg (RT112/84 [22]) was 77% and the AUC(0-t) at 24 h [23] was 5930 ng·h/mL. The Tmax [24] was 6 h, the IC50 [25] was 7 nM and the Vd [26] was 1.12 L/kg. For the same compound, the IC50 (RT-4) was 10 nM, the half-life [27] was 24.8 h and the half-life [28] was 1.17 h. It also gave a half-life at 1 µM [29] greater than 1.67 h, a Tmax [30] of 4 h and an IC50 [31] of 21 nM. It also gave a Papp [32] of 1.1 ×10⁻⁶ cm/s, a Papp [33] of 1 ×10⁻⁶ cm/s and an IC50 [34] of 36 nM. The solubility thermodynamic [35] was 20 µM (≈ 11.2 µg/mL), the half-life at 1 µM [36] was greater than 1.67 h and the Vd [37] was 0.94 L/kg. The bioavailability [38] was 98%, the IC50 [39] was 2.3 nM and the clearance [40] was 17.5 mL/min/kg. It also gave a Cmax [41] of 3090 ng/mL, a solubility thermodynamic [42] of 514 µM (≈ 288 µg/mL) and an IC50 (KG-1) of 109 nM. For the same compound, the IC50 [43] was 1.5 nM, the half-life [44] was 1.93 h and the AUC(0-t) at 24 h [45] was 58300 ng·h/mL. The IC50 [46] was 21 nM.
